Results taken from patent publication US10100088B2, “Glycopeptide derivatives for the preservation and protection of biological materials and microorganisms” (TFCHEM, priority 2014, dated 2018).

Assays:
[1] = tested on: human neonatal skin fibroblasts (CCD-27SK, ATCC CRL-1475); assay: Starvation (serum deprivation) stress, neutral red uptake viability; type: cell-based
Protocol: Induced stresses were performed as follow: Starvation
(§1) The neutral red uptake assay was used for the determination of cell viability. This assay is based on the ability of viable cells to incorporate and bind the supravital dye neutral red in its lysosomes. So, only the viable cells are dyed. At different times after the stress assay (T0), the plates were incubated with neutral red solution for 3.5 hours. The cells are subsequently washed, the dye is extracted in each well and the absorbance is read using a spectrophotometer.
(§2) For sampling, 1 mL of DMEM (without phenol red indicator) with neutral red (OD=0.110) was added to the cells for 3.5 hours (37° C., 10% CO2). After incubation, the medium was removed, two washes of PBS were realized and 1 mL of extraction solution (absolute ethanol 49%, ultrapure water 49%, glacial acetic acid 2%) was added. Plates were placed 15 minutes on rotary shaker in the dark before reading OD at 540 nm.
The OD540 nm average value of positive control was considered as 100% of viability.
(§3) The percentage of viability for each assay was calculated as follow: % viability assay=(OD540 nm of tested solution−blank)*100/(OD540 nm of positive control−blank).

[2] = tested on: human neonatal skin fibroblasts; assay: UV stress (11 J/cm^2), neutral red uptake viability; type: cell-based
Protocol: as §1, §2, §3

SMILES: C[C@H](NC(=O)[C@H](C)NC(=O)[C@@H](N)CCCCNCC(F)(F)C1(O)O[C@H](CO)[C@H](O)[C@H](O)[C@H]1O)C(=O)O.Cl.Cl (stereo partly shown) [Compound 17]
- Percentage of viability ([1]; D 1 after serum deprivation, 5 mg/mL (Table 2)): 75%
- Percentage of viability ([1]; D 1 after serum deprivation, 10 mg/mL (Table 2)): 71%
- Percentage of viability ([1]; D 4 after serum deprivation, 5 mg/mL (Table 2)): 54%
- Percentage of viability ([1]; D 4 after serum deprivation, 10 mg/mL (Table 2)): 61%
- Percentage of viability ([1]; D4 after serum deprivation, 10 mg/mL (Table 4)): 116%
- Percentage of viability ([1]; D 7 after serum deprivation, 5 mg/mL (Table 2)): 45%
- Percentage of viability ([1]; D 7 after serum deprivation, 10 mg/mL (Table 2)): 55%
- preservative/protective effect on skin fibroblasts (in words) ([1]; starvation medium): significant preservative/protective effect
- preservative/protective effect against UV stress (in words) [2]: preservative/protective effect against UV stress
- Percentage of viability following UV stress (11 J/cm^2) ([2]; 1 h after irradiation, 5 mg/mL): 55%
- Percentage of viability following UV stress (11 J/cm^2) ([2]; 1 h after irradiation, 10 mg/mL): 53%
- Percentage of viability following UV stress (11 J/cm^2) ([2]; 1 h after irradiation, 15 mg/mL): 50%
- Percentage of viability following UV stress (11 J/cm^2) ([2]; 3 h after irradiation, 5 mg/mL): 63%
- Percentage of viability following UV stress (11 J/cm^2) ([2]; 3 h after irradiation, 10 mg/mL): 46%
- Percentage of viability following UV stress (11 J/cm^2) ([2]; 3 h after irradiation, 15 mg/mL): 50%
- Percentage of viability following UV stress (11 J/cm^2) ([2]; 24 h after irradiation, 5 mg/mL): 82%
- Percentage of viability following UV stress (11 J/cm^2) ([2]; 24 h after irradiation, 10 mg/mL): 94%
- Percentage of viability following UV stress (11 J/cm^2) ([2]; 24 h after irradiation, 15 mg/mL): 84%
- growth or regenerative effect on stressed cells (in words) ([2]; viability increased in time after UV): growth or regenerative effect
